From publication PMC11945486, “TAS1R2/TAS1R3 Single-Nucleotide Polymorphisms Affect Sweet Taste Receptor Activation by Sweeteners: The SWEET Project” (Nutrients, 2025)
Where two headings read alike, the source gives them in different places. No end group written: not given here.

T1: human TAS1R2-WT/TAS1R3-G832R (Homo sapiens, UniProt Q7RTX0+Q8TE23, G832R)
T1 construct: expressed in transfected cells; host or cells: HEK293T stably expressing Gα16gust44
T1 sequence (Q8TE23 20-839): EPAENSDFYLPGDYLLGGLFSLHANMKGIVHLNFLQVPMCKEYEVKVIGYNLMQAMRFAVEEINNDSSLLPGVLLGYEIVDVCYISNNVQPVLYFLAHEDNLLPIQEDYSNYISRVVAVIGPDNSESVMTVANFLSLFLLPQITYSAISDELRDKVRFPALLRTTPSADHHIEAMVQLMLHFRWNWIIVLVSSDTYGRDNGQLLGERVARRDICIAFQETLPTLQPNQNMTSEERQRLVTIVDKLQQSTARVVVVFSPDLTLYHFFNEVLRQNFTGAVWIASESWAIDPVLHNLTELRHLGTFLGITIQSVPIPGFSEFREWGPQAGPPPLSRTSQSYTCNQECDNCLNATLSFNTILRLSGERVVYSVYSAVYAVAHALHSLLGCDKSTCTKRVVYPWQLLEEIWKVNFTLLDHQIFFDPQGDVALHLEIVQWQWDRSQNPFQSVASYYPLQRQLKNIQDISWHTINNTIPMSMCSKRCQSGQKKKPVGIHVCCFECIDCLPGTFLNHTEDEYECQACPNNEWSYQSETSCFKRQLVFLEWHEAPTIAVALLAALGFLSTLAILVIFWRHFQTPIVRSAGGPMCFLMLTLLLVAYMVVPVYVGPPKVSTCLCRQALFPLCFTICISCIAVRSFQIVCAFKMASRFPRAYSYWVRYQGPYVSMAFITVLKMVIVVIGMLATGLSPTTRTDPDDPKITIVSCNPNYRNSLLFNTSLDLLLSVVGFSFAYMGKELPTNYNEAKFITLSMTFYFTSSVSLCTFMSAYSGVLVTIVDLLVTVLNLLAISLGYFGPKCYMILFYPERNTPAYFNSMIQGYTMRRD
T1 sequence (Q7RTX0 21-852 G832R): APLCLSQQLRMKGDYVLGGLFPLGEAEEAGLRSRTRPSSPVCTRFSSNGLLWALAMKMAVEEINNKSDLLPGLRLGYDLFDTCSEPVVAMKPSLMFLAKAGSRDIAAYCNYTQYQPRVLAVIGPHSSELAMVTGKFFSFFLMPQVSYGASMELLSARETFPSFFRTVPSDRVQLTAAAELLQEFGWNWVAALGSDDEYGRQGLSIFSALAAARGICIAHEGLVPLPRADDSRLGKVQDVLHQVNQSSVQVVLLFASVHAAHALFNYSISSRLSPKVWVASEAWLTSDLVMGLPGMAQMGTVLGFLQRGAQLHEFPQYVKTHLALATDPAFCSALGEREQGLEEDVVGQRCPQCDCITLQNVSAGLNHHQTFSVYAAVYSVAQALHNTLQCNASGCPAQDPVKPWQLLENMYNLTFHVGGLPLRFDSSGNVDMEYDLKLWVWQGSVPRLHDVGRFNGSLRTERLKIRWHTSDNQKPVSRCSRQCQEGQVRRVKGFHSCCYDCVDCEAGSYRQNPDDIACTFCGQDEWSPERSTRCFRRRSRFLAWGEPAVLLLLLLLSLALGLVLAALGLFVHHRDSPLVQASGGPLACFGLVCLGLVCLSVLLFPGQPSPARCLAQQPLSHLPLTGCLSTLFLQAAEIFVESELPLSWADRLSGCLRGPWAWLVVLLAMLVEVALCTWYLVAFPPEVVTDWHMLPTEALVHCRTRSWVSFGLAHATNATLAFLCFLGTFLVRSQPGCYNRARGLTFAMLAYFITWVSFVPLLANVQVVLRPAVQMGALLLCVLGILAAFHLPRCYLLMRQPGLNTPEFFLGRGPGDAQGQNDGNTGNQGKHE


Target: T1, human TAS1R2-WT/TAS1R3-G832R
Test: Calcium mobilisation assay, TAS1R2-WT with TAS1R3 variant G832R
Type: cell-based
Settings: for Max ΔF/F0: maximal signal amplitude
From the text: The coding sequences for TAS1R2 and TAS1R3 were commercially synthesised, and the human codon was optimised for expression in human cells. The coding sequences of human TAS1R2 and TAS1R3 were subcloned and inserted into the mammalian expression vectors pcDNA6/myc-HisA and pcDNA4/myc-HisA (Invitrogen; Thermo Fisher Scientific; Illkirch, France) between the EcoRI and NotI restriction sites, generating the plasmids pcDNA6-TAS1R2 and pcDNA4-TAS1R3, respectively. To increase protein expression in mammalian cells, an upstream start codon was used, which was a sequence called MAX, corresponding to the QBI SP163 element also described in pcDNA4-HisMax (Invitrogen; Thermo Fisher Scientific; Illkirch, France). To measure the expression level of the receptor by immunohistochemistry, we used the FLAG sequence ([…]) in the C-terminal position, which encodes the FLAG tag epitope. SNP variants of TAS1R2 and TAS1R3 were constructed based on […], respectively, using site-directed mutagenesis (Genewiz; Leipzig, Germany).
The HEK293T cells were kindly provided by Jay P. Slack (Givaudan Flavors Corporation; Cincinnati, OH, USA). HEK293T cells stably transfected with Gα16gust44 [43, 67] were seeded in poly-D-lysine-coated clear-bottom black 96-well plates (0.35 × 10^5 cells/well) in high-glucose DMEM supplemented with 2 mM GlutaMAX, 10% dialysed foetal bovine serum with penicillin/streptomycin and G418 (400 μg/mL) at 37 °C and 6.3% CO2 in a humidified atmosphere as previously reported. […] As a negative control, HEK293T cells were mock-transfected with the empty expression vector. After a further 24 h of incubation, the HEK293T cells were washed with C1 buffer (130 mM NaCl, 5 mM KCl, 10 mM HEPES pH 7.4 and 2 mM CaCl2). The 96-well plates containing the cells were then stimulated with sweet-tasting compounds. […] Different concentration ranges were tested depending on the sweet compound injected. The Ca^2+ changes were expressed as fractional changes in fluorescent light intensity: ΔF/F = (F − F0)/F0, where F was the fluorescent light intensity at each point, and F0 was the value of emitted fluorescent light prior to stimulus application. To calculate dose–response relationships, the changes in fluorescence upon stimulus application were averaged, mock-subtracted and baseline-corrected. The dose–response data obtained were adjusted using a 4-parameter logistic equation. The half-maximal effective concentrations (EC50 values) and maximal signal amplitudes were calculated using SigmaPlot software (version 15.0) (Systat Software; San Jose, CA, USA).
For in vitro calcium mobilisation assay performed on hTAS1R2-SNPs, hTAS1R3-SNPs and mTAS1R3-I60T, 6 to 7 concentrations were tested for each sweet compound, plus buffer alone. All concentration–receptor combinations were measured in duplicate, and each experiment was repeated at least 4 times (8 wells/concentration). Results were expressed for each concentration as ΔF/F mean ± SEM and represented as dose–response curves.

R1 = Variant EC50/WT EC50	Max ΔF/F0	EC50 (read-out: EC50) [µM]	EC50 (brazzein) [µg/mL]	Molecule
0.8	0.55 ± 0.03	468 ± 64	–	CC1=CC(=O)NS(=O)(=O)O1 [Acesulfame K, acesulfame K]
0.6	1.03 ± 0.01	28.1 ± 12.3	–	COc1ccc(CCC(=O)c2c(O)cc(O[C@@H]3O[C@H](CO)[C@@H](O)[C@H](O)[C@H]3O[C@@H]3O[C@@H](C)[C@H](O)[C@@H](O)[C@H]3O)cc2O)cc1O [NHDC, neohesperidin dihydrochalcone]
0.7	0.88 ± 0.02	0.8 ± 0.07	–	COC(=O)[C@H](Cc1ccccc1)NC(=O)[C@H](CC(=O)O)NCCC(C)(C)C [Neotame]
0.5	1.18 ± 0.14	7.2 ± 3	–	C=C(C)[C@@H]1CC=C(/C=N/O)CC1 [Perillartine, perillartine]
0.7	0.91 ± 0.02	81 ± 4	–	OC[C@H]1O[C@H](O[C@]2(CCl)O[C@H](CCl)[C@@H](O)[C@@H]2O)[C@H](O)[C@@H](O)[C@H]1Cl [Sucralose]
0.5	0.97 ± 0.07	–	52.8 ± 15.7	brazzein (QDKCKKVYENYPVSKCQLANQCNYDCKLDKHARSGECFYDEKRNLQCICDYCEY; ends and bridges not checked; cysteine pairing not given here; UniProt P56552 1-54, looked up) [sweet-tasting protein obtained by recombinant production using the yeast Pichia pastoris]

The remaining lines, values behind:

Molecule	R1 = Variant EC50/WT EC50	Max ΔF/F0	EC50 (read-out: EC50) [µM]	EC50 (brazzein) [µg/mL]
O=S(=O)(O)NC1CCCCC1 [Cyclamate, cyclamate]	–	–	998 ± 46	–
C[C@H](CC[C@@H](O[C@@H]1O[C@H](CO[C@@H]2O[C@H](CO)[C@@H](O)[C@H](O)[C@H]2O)[C@@H](O)[C@H](O)[C@H]1O[C@@H]1O[C@H](CO)[C@@H](O)[C@H](O)[C@H]1O)C(C)(C)O)[C@H]1CC[C@@]2(C)[C@@H]3CC=C4[C@@H](CC[C@H](O[C@@H]5O[C@H](CO[C@@H]6O[C@H](CO)[C@@H](O)[C@H](O)[C@H]6O)[C@@H](O)[C@H](O)[C@H]5O)C4(C)C)[C@]3(C)[C@H](O)C[C@]12C [Mogroside V, mogroside V]	0.6	1.23 ± 0.04	19.1 ± 1.7	–
C=C1C[C@@]23CC[C@H]4[C@@](C)(CCC[C@@]4(C)C(=O)O[C@@H]4O[C@H](CO)[C@@H](O)[C@H](O[C@@H]5O[C@H](CO)[C@@H](O)[C@H](O)[C@H]5O)[C@H]4O[C@@H]4O[C@H](CO)[C@@H](O)[C@H](O)[C@H]4O)[C@@H]2CC[C@]1(O[C@@H]1O[C@H](CO)[C@@H](O)[C@H](O[C@@H]2O[C@H](CO)[C@@H](O)[C@H](O)[C@H]2O)[C@H]1O[C@@H]1O[C@H](CO)[C@@H](O)[C@H](O)[C@H]1O)C3 [Rebaudioside M, rebaudioside M]	0.6	1.38 ± 0.07	22.7 ± 3.2	–
thaumatin	0.5	0.76 ± 0.03	–	–
thaumatin (protein, Eight disulfides, sweet-tasting plant protein, E957) ATFEIVNRCSYTVWAAASKGDAALDAGGRQLNSGESWTINVEPGTKGGKIWARTDCYFDDSGSGICKTGDCGGLLRCKRFGRPPTTLAEFSLNQYGKDYIDISNIKGFNVPMDFSPTTRGCRGVRCAADIVGQCPAKLKAPGGGCNDACTVFQTSEYCCTTGKCGPTEYSRFFKRLCPDAFSYVLDKPTTVTCPGSSNYRVTFCPTA	–	–	5.7 ± 0.7	–
